From the CheMixHub viscosity set

Assay: xn = mol fraction of the nth substance listed

CCCC(=O)OC + CCCCCCC
Conditions	viscosity [mPa·s]
293.15 K, 101.33 kPa, x1 = 0.08428	0.408
293.15 K, 101.33 kPa, x1 = 0.1292	0.409
293.15 K, 101.33 kPa, x1 = 0.1965	0.413
293.15 K, 101.33 kPa, x1 = 0.2883	0.419
293.15 K, 101.33 kPa, x1 = 0.3831	0.429
293.15 K, 101.33 kPa, x1 = 0.4997	0.445
293.15 K, 101.33 kPa, x1 = 0.5976	0.462
293.15 K, 101.33 kPa, x1 = 0.6939	0.483
293.15 K, 101.33 kPa, x1 = 0.7977	0.51
293.15 K, 101.33 kPa, x1 = 0.905	0.542
293.15 K, 101.33 kPa, x1 = 0.9304	0.552
303.15 K, 101.33 kPa, x1 = 0.05501	0.368
303.15 K, 101.33 kPa, x1 = 0.1135	0.369
303.15 K, 101.33 kPa, x1 = 0.1897	0.372
303.15 K, 101.33 kPa, x1 = 0.2828	0.377
303.15 K, 101.33 kPa, x1 = 0.4056	0.388
303.15 K, 101.33 kPa, x1 = 0.5087	0.4
303.15 K, 101.33 kPa, x1 = 0.5969	0.413
303.15 K, 101.33 kPa, x1 = 0.6951	0.431
303.15 K, 101.33 kPa, x1 = 0.803	0.454
303.15 K, 101.33 kPa, x1 = 0.9043	0.481
303.15 K, 101.33 kPa, x1 = 0.9349	0.49
308.15 K, 101.3 kPa, x1 = 0.0525	0.357
308.15 K, 101.3 kPa, x1 = 0.156	0.366
308.15 K, 101.3 kPa, x1 = 0.1959	0.369
308.15 K, 101.3 kPa, x1 = 0.2969	0.379
308.15 K, 101.3 kPa, x1 = 0.4989	0.406
308.15 K, 101.3 kPa, x1 = 0.5971	0.421
308.15 K, 101.3 kPa, x1 = 0.7995	0.459
308.15 K, 101.3 kPa, x1 = 0.8524	0.47
308.15 K, 101.3 kPa, x1 = 0.9236	0.487
308.15 K, 101.3 kPa, x1 = 0.9531	0.494
308.15 K, 101.3 kPa, x2 = 0.0175	0.501
313.15 K, 101.33 kPa, x1 = 0.06751	0.334
313.15 K, 101.33 kPa, x1 = 0.1218	0.335
313.15 K, 101.33 kPa, x1 = 0.1984	0.338
313.15 K, 101.33 kPa, x1 = 0.2903	0.342
313.15 K, 101.33 kPa, x1 = 0.4044	0.351
313.15 K, 101.33 kPa, x1 = 0.5173	0.363
313.15 K, 101.33 kPa, x1 = 0.5954	0.373
313.15 K, 101.33 kPa, x1 = 0.6931	0.388
313.15 K, 101.33 kPa, x1 = 0.8053	0.409
313.15 K, 101.33 kPa, x1 = 0.9053	0.432
313.15 K, 101.33 kPa, x1 = 0.9355	0.44
318.15 K, 101.3 kPa, x1 = 0.0525	0.326
318.15 K, 101.3 kPa, x1 = 0.156	0.337
318.15 K, 101.3 kPa, x1 = 0.1959	0.341
318.15 K, 101.3 kPa, x1 = 0.2969	0.352
318.15 K, 101.3 kPa, x1 = 0.4989	0.379
318.15 K, 101.3 kPa, x1 = 0.5971	0.397
318.15 K, 101.3 kPa, x1 = 0.7995	0.427
318.15 K, 101.3 kPa, x1 = 0.8524	0.437
318.15 K, 101.3 kPa, x1 = 0.9236	0.451
318.15 K, 101.3 kPa, x1 = 0.9531	0.458
318.15 K, 101.3 kPa, x2 = 0.0175	0.465

CCCCOC(=O)c1ccccc1 + CCCCCCC
viscosity [mPa·s], 101 kPa
Conditions	x1 = 0.0994	x1 = 0.1959	x1 = 0.2964	x1 = 0.3986	x1 = 0.4963	x1 = 0.5965	x1 = 0.6954	x1 = 0.7986	x1 = 0.8973
298.15 K	0.457	0.536	0.645	0.777	0.95	1.162	1.411	1.731	2.122
308.15 K	0.41	0.476	0.571	0.686	0.811	0.978	1.176	1.413	1.727
318.15 K	0.368	0.426	0.501	0.598	0.697	0.835	0.991	1.192	1.426

CC(C)(C)O + CCCCCCCC
viscosity [mPa·s], 101 kPa
Conditions	x1 = 0.8499	x1 = 0.9	x1 = 0.9235
303.15 K	–	–	2.015
313.15 K	1.075	1.275	–

CCCC(=O)OC + CCCCCCCC
101.33 kPa
Conditions	viscosity [mPa·s]
293.15 K, x1 = 0.0893	0.53
293.15 K, x1 = 0.137	0.525
293.15 K, x1 = 0.2169	0.519
293.15 K, x1 = 0.3101	0.514
293.15 K, x1 = 0.3906	0.514
293.15 K, x1 = 0.5062	0.516
293.15 K, x1 = 0.6094	0.522
293.15 K, x1 = 0.6977	0.529
293.15 K, x1 = 0.795	0.54
293.15 K, x1 = 0.8572	0.55
293.15 K, x1 = 0.9222	0.562
303.15 K, x1 = 0.1392	0.468
303.15 K, x1 = 0.2271	0.462
303.15 K, x1 = 0.315	0.459
303.15 K, x1 = 0.4073	0.458
303.15 K, x1 = 0.5146	0.459
303.15 K, x1 = 0.607	0.464
303.15 K, x1 = 0.6957	0.47
303.15 K, x1 = 0.7994	0.48
303.15 K, x1 = 0.8631	0.488
303.15 K, x1 = 0.9198	0.497
313.15 K, x1 = 0.07444	0.425
313.15 K, x1 = 0.1338	0.42
313.15 K, x1 = 0.2249	0.416
313.15 K, x1 = 0.3123	0.413
313.15 K, x1 = 0.3936	0.411
313.15 K, x1 = 0.4968	0.413
313.15 K, x1 = 0.6049	0.417
313.15 K, x1 = 0.6981	0.423
313.15 K, x1 = 0.8007	0.432
313.15 K, x1 = 0.866	0.439
313.15 K, x1 = 0.9319	0.448
